Measured values as given in patent publication US7666996B2, “Casein derived peptides and uses thereof” (priority 2000, dated 2010).

What was measured:
human bone marrow cells = assay: Colony assays in cultured human bone marrow cells (CFU-GM, MK, BFU-E, CFU-GEMM); format: cell-based; details: 100 μg/ml synthetic peptide in the presence of EPO
Description: Proliferation of megakaryocyte- and erythroid forming cells from human bone marrow and cord blood cells: A sample of bone marrow from an apparently healthy human being was processed by density gradient separation using Histopaque-107 (Sigma Diagnostics) to obtain a purified population of mononuclear cells (MNC). Colony assays were performed in a plating medium containing final concentrations of 0.92% methyl cellulose (4000 centripase powder, Sigma Diagnostic), rehydrated in Iscoves modified Dulbecco's medium containing 36 mM sodium bicarbonate (Gibco), 30% fetal bovine serum (FBS) (Hyclone), 0.292 mg/ml glutamine, 100 units per ml penicillin and 0.01 mg per ml streptomycin (Biological Industries, Beit Haemek). Cord blood from normal births was collected and prepared as mentioned above.
Colony assay medium containing 10^5 MNC per ml was plated in triplicate wells within a 24 well tissue culture plate (Greiner), 0.33 ml per well. The cultures were incubated at 37° C. in 5% CO2, 95% air and 55% relative humidity with or without peptides derived from natural casein or synthetic peptides derived from casein, at the indicated concentrations. Plates were scored after 14 days for colonies containing more than 50 cells. […]

[1] = tested on: irradiated, bone marrow transplanted mice; assay: Leukocyte and platelet reconstitution in bone marrow transplant recipient mice; format: in vivo; details: for enhancement of platelet counts over control mice: 3×10^6 cells, 10 days post-transplantation
Description: Leukocyte and platelet reconstitution in bone marrow transplant recipient Mice: BALB/c mice were sub-lethally irradiated at a source to skin distance of 70 cm, dosage of 50 cGy per minute, for a total of 600 cGy. The irradiated mice were […] casein, synthetic peptides derived from casein (13-26 amino acids, see Table 3 above), or human serum albumin (controls), following a double-blinded protocol. Leukocyte reconstitution was determined according to cell count in peripheral blood collected at indicated intervals from 6 to 12 days post treatment. Platelet reconstitution was determined by cell count in blood collected from the retro orbital plexus, into EDTA-containing vials, at indicated intervals from day 6 to day 15 post treatment. […]
In a third series of experiments, the mice were irradiated (800 cGy), reconstituted and injected intraperitoneally with 1.0 mg synthetic peptides derived from casein (peptides 3a and 4P, representing the first 6 and 12 amino acids of the N terminus of αS1 casein, respectively—see Table 3 above) daily, on days 4, 5, 6 and 7 post-transplantation. Platelet reconstitution was assayed at 10 and 12 days post-transplantation.
In a fourth series of experiments, F1 mice were irradiated (750 cGy), reconstituted with syngeneic bone marrow, and injected intravenously 24 hours later with 1 mg per mouse of synthetic peptides derived from casein representing amino acids 1-22 of the N terminus of αS1 casein. In addition, 2 (two) groups of mice were treated each with a natural fraction of αS1 casein position 1-23, and a fraction of peptides derived from natural κ-casein, representing amino acid coordinates 106-169 of κ-casein (SEQ ID NO: 27). WBC counts were conducted on days 5, 7, 10 and 12 post-transplantation.

[2] = tested on: murine bone marrow progenitor cells; assay: CFU-GM colony formation with IL-3 and G-CSF, murine bone marrow; format: cell-based
Description: Cells were scored in the macroscopic colonies grown from murine bone marrow cells prepared similarly to the CFU-GEMM colonies previously described. Cells were incubated with hematopoietic factors cytokine (IL-3) and colony stimulating factor (G-CSF), and 25 μg or more of synthetic peptides derived from casein (J), representing amino acids 1-22 of α-S1 casein, or 30-4, representing amino acids 1-6 of α-S1 casein, for 14 days, individually or in combination. The stimulation of colony formation (CFU) is expressed as the number of myeloid colonies in 10^5 plated MNCs.
Synthetic peptides derived from αS1-casein stimulate Granulopoietic (GM) cell proliferation in CFU-GM: As mentioned hereinabove, formation and expansion of CFU-GM (Granulocyte and Macrophage) colonies, and CFU-GEMM (Granulocyte, Erythroid, Macrophage and Megakaryocyte) colonies constitute one of the early events in the differentiation of hematopoietic progenitor cells in the bone marrow.

[3] = tested on: Non-Obese Diabetic (NOD) mice; assay: Glucosuria in Non-Obese Diabetic (NOD) mice; format: in vivo
Description: Juvenile (Type I, IDDM) diabetes in Non-Obese Diabetic (NOD) mice:
Peptides derived from natural casein: NOD mice are a commonly used model for research of autoimmune disease and human Juvenile Diabetes. Six week old female NOD mice received either one or two injections per week of 100 μg of peptides derived from natural casein, for a total of 5 or 10 treatments. Control mice received no treatment. The severity of disease was determined according to glucosuria, which was measured using Combi test sticks [Gross, D. J. et al (1994), Diabetology, 37:1195]. Results were expressed as the percent of glucosuria-free mice in each sample over a 365-day period.
Synthetic peptides derived from casein: In another experiment, 6 week old female NOD mice received one injection per week of 100 μg of Synthetic peptides derived from casein for a total of 5 treatments. Control mice received no treatment. Results were expressed as the number of healthy mice in the various treated groups.

[4] = tested on: human bone marrow progenitor cells; assay: CFU-GM colony formation with IL-3 and G-CSF, human bone marrow; format: cell-based; details: 100 μg/ml, 14 days
Description: Cells were scored in the macroscopic colonies grown from human bone marrow cells prepared similarly to the CFU-GEMM colonies previously described. Cells were incubated with hematopoietic factors cytokine (IL-3) and colony stimulating factor (G-CSF), and 25 μg or more of synthetic peptides derived from casein: peptide J, representing amino acids 1-22 of α-S1 casein. Exposure of the human bone marrow progenitor cells to peptides derived from casein was for 14 days. Stimulation of colony formation (CFU) is expressed as the number of myeloid colonies in 10^5 plated MNCs.
A similar effect of synthetic peptides derived from αS1 casein was observed on the proliferation of granulocytes and macrophages from human bone marrow progenitor cells. […] (FIG. 20). Thus, synthetic peptides derived from αS1 casein or combinations thereof are effective in augmenting the effect of granulopoitic factors such as G-CSF on bone marrow hematpoietic progenitor cell differentiation and expansion.

[5] = tested on: murine bone marrow progenitor cells; assay: CFU-GEMM colonies from murine bone marrow cells, differential counts; format: cell-based
Description: Proliferation of megakaryocytes in multipotential colonies (CFU-GEMM) from murine bone marrow cells: Primary bone marrow cells (1×10^5 per ml) from 8-12 week-old C3H/HeJ […], 95% air, at 37° C. The medium, appropriate for the growth of multipotential colonies (CFU-GEMM), contained 1% BSA (Sigma), 10^−4 M thioglycerol (Sigma), 2.8×10^−4 M human transferrin (TF, Biological industries, Israel), 10% WEHI-CM as a source of IL-3 and 2 units per ml erythropoietin (rhEPO, R & D Systems, Minneapolis). […] They were picked with a micropipette, cytocentrifuged and stained with May-Grunwald-Giemsa for differential counts. At least 700 cells were counted for each preparation.
Proliferation of Dendritic cells in CFU-GEMM: Multipotent (CFU-GEMM) colonies grown from primary bone marrow cells as described for the assay of megakaryocyte proliferation above were collected, stained and counted for dendritic cells. At least 700 cells were counted for each preparation.
Proliferation of Plasma cells in CFU-GEMM: Multipotent (CFU-GEMM) colonies grown from primary bone marrow cells as described for the assay of megakaryocyte proliferation above were collected, stained and counted for plasma cells. At least 700 cells were counted for each preparation.
Proliferation of Macrophage Cells in CFU-GEMM: Multipotent (CFU-GEMM) colonies grown from primary bone marrow cells as described for the assay of megakaryocyte proliferation above were collected, stained and counted for macrophage cells. At least 700 cells were counted for each preparation.
Proliferation of Red Blood Cells in CFU-GEMM: Multipotent (CFU-GEMM) colonies grown from primary bone marrow cells as described for the assay of megakaryocyte proliferation above were collected, stained and counted for red blood cells. At least 700 cells were counted for each preparation.
Proliferation of Polymorphonuclear Cells (PMN) in CFU-GEMM: Multipotent (CFU-GEMM) colonies grown from primary bone marrow cells as described for the assay of megakaryocyte proliferation above were collected, stained and counted for polymorphonuclear cells. […]

## RPKHPIKHQGLPQEVLNE [F, synthetic peptide, N-terminal 18 amino acids of αS1 casein]
Human bone marrow cells
  proliferation of erythroid cell precursors (BFU-E colonies) vs EPO alone: one and one-half

## RPKHPIKHQGLPQEVLNENLLR [J, synthetic peptide, amino acids 1-22 of α-S1 casein]
[1]; BALB/c, 600 cGy, 1 mg per mouse intraperitoneal, control 1.67
  peripheral white blood cell counts, day 10: 2.74 ×10^6 cells per ml
[1]; BALB/c, 600 cGy, 1 mg per mouse intraperitoneal, control 4.64
  peripheral white blood cell counts, day 12: 5.20 ×10^6 cells per ml
[1]; F1 mice, 750 cGy, 1 mg i.v., days 5 and 7 post-reconstitution
  white blood cell reconstitution (in words): dramatic enhancement
[1]; F1 mice, 750 cGy, 1 mg i.v.
  enhancement of platelet counts over control mice: > 25%
[1]; F1 mice, 750 cGy, 1 mg i.v., listed as amino acids 1-22 of αS1-casein
  enhancement of platelet counts over control mice: 34%
[2]; 25 μg or more, 14 days
  myelocyte formation with G-CSF and IL-3 (in words): synergistic increase
[2]; in the presence of G-CSF
  increase in proliferation of granulocytes: 25%
[3]; female NOD mice, 100 μg synthetic peptide once weekly for 5 weeks, evaluated after 25 weeks
  Healthy/Total (sugar not detected in urine): 3/5
[3]; individual healthy NOD mice, after 25 weeks
  Urine Sugar: Negative
[4]
  enhancement of granulopoietic stimulating effect of G-CSF (myelocyte formation): > 50%
[5]; 25 μg or more, 14 days
  effect on Early (E.MK) megakaryocyte formation (in words): dramatic effect
[5]; synthetic peptide, FIG. 21
  increase in total megakaryocyte proliferation over controls: 57%
